Measured values as given in US20130109682A1, “CYCLIC ETHER COMPOUNDS USEFUL AS KINASE INHIBITORS” (NOVARTIS AG, priority 2010, published 2013).

Columns and labels:
GSK3β = GSK3β (Homo sapiens, UniProt P49841); experiment: GSK3β ATP depletion assay; type: biochemical; details: ATP depletion assay; read-out: GSK3b IC50
How it was run: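 Human GSK3β (5 nM) preincubated 15 min with 10 μM biotinylated phospho-CREB peptide in pH 7.5 Tris buffer (15 mM MgCl2, 1 mM DTT, 0.1% BSA, 2.5% DMSO). Reaction started with 2 μM ATP and run to about 50% ATP depletion. Remaining ATP measured by KinaseGlo luminescence.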

PIM2 = PIM2 (Homo sapiens, UniProt Q9P1W9); experiment: Pim 2 AlphaScreen assay (high ATP); type: biochemical; details: read-out: Pim2 IC50
Description: Pim1, Pim2, Pim3 AlphaScreen Assay Pim 1, Pim 2 & Pim 3 AlphaScreen assays using high ATP (11-125×ATP Km) were used to determine the biochemical activity of the inhibitors. The activity of Pim 1, Pim 2, & Pim 3 is measured using a homogeneous bead based system quantifying the amount of phosphorylated peptide substrate resulting from kinase-catalyzed phosphoryl transfer to a peptide substrate. Compounds to be tested are dissolved in 100% DMSO and directly distributed to a white 384-well plate at […] per well. To start the reaction, 5 μl of 100 nM Bad peptide (Biotin-AGAGRSRHSSYPAGT —OH) and ATP (concentrations described below) in assay buffer (50 mM Hepes, pH=7.5, 5 mM MgCl2, 0.05% BSA, 0.01% Tween-20, 1 mM DTT) is added to each well. This is followed by the addition of 5 μl/well of Pim 1, Pim 2 or Pim 3 kinase in assay buffer (concentrations described below). Final assay concentrations (described below) are in 2.5% DMSO. The reactions are performed for ˜2 hours, then stopped by the addition of 10 μl of 0.75 μg/ml anti-phospho Ser/Thr antibody (Cell Signaling), 10 μg/ml Protein A AlphaScreen beads (Perkin Elmer), and 10 μg/ml streptavidin coated AlphaScreen beads in stop/detection buffer (50 mM EDTA, 95 mM Tris, pH=7.5, 0.01% Tween-20). The stopped reactions are incubated overnight in the dark. The phosphorylated peptide is detected via an […] initiated chemiluminescence/fluorescence cascade using the Envision plate reader (Perkin Elmer).
IC50, the half maximal inhibitory concentration, represents the concentration of a test compound that is required for 50% inhibition of its target in vitro under the described assay conditions.

Chain of GSK3β (P49841 whole entry, species assumed): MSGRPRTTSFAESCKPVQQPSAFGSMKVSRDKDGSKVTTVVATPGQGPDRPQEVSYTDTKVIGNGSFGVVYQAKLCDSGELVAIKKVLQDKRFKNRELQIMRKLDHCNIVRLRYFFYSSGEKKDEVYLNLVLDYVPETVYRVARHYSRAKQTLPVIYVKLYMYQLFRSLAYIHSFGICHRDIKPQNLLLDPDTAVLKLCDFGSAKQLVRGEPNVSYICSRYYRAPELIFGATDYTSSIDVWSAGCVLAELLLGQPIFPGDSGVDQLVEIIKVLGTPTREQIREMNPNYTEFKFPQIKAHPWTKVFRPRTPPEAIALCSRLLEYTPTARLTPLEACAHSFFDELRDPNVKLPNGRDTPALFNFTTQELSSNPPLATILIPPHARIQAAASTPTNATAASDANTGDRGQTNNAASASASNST
Chain of PIM2 (Q9P1W9 whole entry): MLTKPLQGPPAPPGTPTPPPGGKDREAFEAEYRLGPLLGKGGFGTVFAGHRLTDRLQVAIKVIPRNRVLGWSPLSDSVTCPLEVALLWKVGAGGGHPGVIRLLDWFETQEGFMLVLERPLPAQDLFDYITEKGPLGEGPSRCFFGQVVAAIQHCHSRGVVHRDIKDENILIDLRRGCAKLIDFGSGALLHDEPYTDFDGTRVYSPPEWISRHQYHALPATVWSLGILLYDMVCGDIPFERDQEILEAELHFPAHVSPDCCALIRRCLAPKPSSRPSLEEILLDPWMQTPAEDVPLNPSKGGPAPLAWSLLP

Row | Structure (SMILES) | IC50 (GSK3β) [nM] | IC50 (PIM2) [nM]
1 | CC(C)[C@H]1C[C@@H](N)C[C@@H](c2ccncc2NC(=O)c2ccc(F)c(-c3c(F)cccc3F)n2)O1 [Example 301, N-(4-((2S,4R,6R)-4-amino-6-isopropyltetrahydro-2H-pyran-2-yl)pyridin-3-yl)-6-(2,6-difluorophenyl)-5-fluoropicolinamide] | 20700 | 159
2 | CC(C)[C@H]1O[C@@H](c2ccncc2NC(=O)c2ccc(F)c(-c3ccccc3)n2)C[C@@H](N)[C@@H]1O [Example 309, N-(4-((2R,4R,5S,6R)-4-amino-5-hydroxy-6-isopropyltetrahydro-2H-pyran-2-yl)pyridin-3-yl)-5-fluoro-6-phenylpicolinamide] | 8120 | 131
3 | CC(C)C(=O)Nc1ccc(F)c(-c2nc(C(=O)Nc3cnccc3[C@H]3C[C@@H](N)[C@H](O)[C@@H](C(C)C)O3)ccc2F)c1F [Example 308, N-(4-((2R,4R,5S,6R)-4-amino-5-hydroxy-6-isopropyltetrahydro-2H-pyran-2-yl)pyridin-3-yl)-6-(2,6-difluoro-3-isobutyramidophenyl)-5-fluoropicolinamide] | 18300 | 68.5
4 | CC[C@H]1OC(c2ccncc2NC(=O)c2ccc(F)c(-c3c(F)cc(S(C)(=O)=O)cc3F)n2)C[C@@H](N)[C@]1(C)O (stereo in doubt) [Example 283, N-(4-((2S,4R,5S,6R)-4-amino-6-ethyl-5-hydroxy-5-methyltetrahydro-2H-pyran-2-yl)pyridin-3-yl)-6-(2,6-difluoro-4-(methylsulfonyl)phenyl)-5-fluoropicolinamide] | 12500 | 87.4
5 | CC(C)(C)[C@H]1O[C@@H](c2ccncc2NC(=O)c2ccc(F)c(-c3c(F)cccc3F)n2)C[C@H](N)[C@@H]1O [Example 278, N-(4-((2R,4S,5S,6R)-4-amino-6-(tert-butyl)-5-hydroxytetrahydro-2H-pyran-2-yl)pyridin-3-yl)-6-(2,6-difluorophenyl)-5-fluoropicolinamide] | 9700 | 70.7
6 | CC(C)[C@H]1O[C@@H](c2ccncc2NC(=O)c2ccnc(-n3ccc(=O)cc3)n2)C[C@@H](N)[C@@H]1O [Example 304, N-(4-((2R,4R,5S,6R)-4-amino-5-hydroxy-6-isopropyltetrahydro-2H-pyran-2-yl)pyridin-3-yl)-2-(4-oxopyridin-1(4H)-yl)pyrimidine-4-carboxamide] | > 25000 | > 25000
7 | C[C@H]1O[C@@H](c2ccncc2NC(=O)c2ccc(F)c(-c3ccc(N)nc3F)n2)C[C@@H](N)[C@]1(C)O [Example 311, 6′-amino-N-(4-((2R,4R,5S,6R)-4-amino-5-hydroxy-5,6-dimethyltetrahydro-2H-pyran-2-yl)pyridin-3-yl)-2′,3-difluoro-2,3′-bipyridine-6-carboxamide] | 2300 | 84.6
8 | CC(C)[C@H]1O[C@@H](c2ccncc2NC(=O)c2ccnc(-n3c(F)cccc3=O)n2)C[C@@H](N)[C@@H]1O [Example 310, N-(4-((2R,4R,5S,6R)-4-amino-5-hydroxy-6-isopropyltetrahydro-2H-pyran-2-yl)pyridin-3-yl)-2-(6-fluoro-2-oxopyridin-1(2H)-yl)pyrimidine-4-carboxamide] | 3310 | 6940
9 | CC(C)(C)[C@@H]1O[C@H](c2ccncc2NC(=O)c2ccc(F)c(-c3c(F)cccc3F)n2)C[C@@H](N)[C@H]1O [Example 279, N-(4-((2S,4R,5R,6S)-4-amino-6-(tert-butyl)-5-hydroxytetrahydro-2H-pyran-2-yl)pyridin-3-yl)-6-(2,6-difluorophenyl)-5-fluoropicolinamide] | 548 | 27.1
10 | CC1(C)C[C@@H](N)C[C@H](c2ccncc2NC(=O)c2ccc(F)c(-c3c(F)cccc3F)n2)O1 [Example 298, N-(4-((2R,4S)-4-amino-6,6-dimethyltetrahydro-2H-pyran-2-yl)pyridin-3-yl)-6-(2,6-difluorophenyl)-5-fluoropicolinamide] | 4940 | 234
11 | CC[C@]1(O)[C@H](N)CC(c2ccncc2NC(=O)c2ccc(F)c(-c3c(F)cc(S(C)(=O)=O)cc3F)n2)O[C@@H]1C (stereo in doubt) [Example 284, N-(4-((2S,4R,5S,6R)-4-amino-5-ethyl-5-hydroxy-6-methyltetrahydro-2H-pyran-2-yl)pyridin-3-yl)-6-(2,6-difluoro-4-(methylsulfonyl)phenyl)-5-fluoropicolinamide] | 619 | 59.1
12 | CC(C)[C@H]1O[C@@H](c2ccncc2NC(=O)c2ccc(F)c(-c3cccc(S(C)(=O)=O)c3)n2)C[C@@H](N)[C@@H]1O [Example 312, N-(4-((2R,4R,5S,6R)-4-amino-5-hydroxy-6-isopropyltetrahydro-2H-pyran-2-yl)pyridin-3-yl)-5-fluoro-6-(3-(methylsulfonyl)phenyl)picolinamide] | > 25000 | 2480
13 | CC(C)[C@H]1O[C@@H](c2ccncc2NC(=O)c2ccc(F)c(-c3cnc4[nH]ccc4c3)n2)C[C@@H](N)[C@@H]1O [Example 295, N-(4-((2R,4R,5S,6R)-4-amino-5-hydroxy-6-isopropyltetrahydro-2H-pyran-2-yl)pyridin-3-yl)-5-fluoro-6-(1H-pyrrolo[2,3-b]pyridin-5-yl)picolinamide] | 4300 | 345
14 | CC(C)[C@H]1O[C@@H](c2ccncc2NC(=O)c2ccnc(-c3c(F)cccc3F)n2)C[C@@H](N)[C@@H]1O [Example 293, N-(4-((2R,4R,5S,6R)-4-amino-5-hydroxy-6-isopropyltetrahydro-2H-pyran-2-yl)pyridin-3-yl)-2-(2,6-difluorophenyl)pyrimidine-4-carboxamide] | 950 | 154
15 | CC[C@@H]1O[C@H](c2ccncc2NC(=O)c2ccc(F)c(-c3c(F)cccc3F)n2)C[C@H](O)[C@@]1(C)O [Example 163, 6-(2,6-difluorophenyl)-N-(4-((2S,4S,5R,6S)-6-ethyl-4,5-dihydroxy-5-methyltetrahydro-2H-pyran-2-yl)pyridin-3-yl)-5-fluoropicolinamide] |  | 7490
16 | C[C@@]1(O)[C@H](N)C[C@@H](c2ccncc2NC(=O)c2ccc(F)c(-c3c(F)cccc3F)n2)OC12CC2 [Example 288, N-(4-((5S,7R,8R)-7-amino-8-hydroxy-8-methyl-4-oxaspiro[2.5]octan-5-yl)pyridin-3-yl)-6-(2,6-difluorophenyl)-5-fluoropicolinamide] | 16300 | 272
17 | C[C@]1(O)[C@@H](N)C[C@H](c2ccncc2NC(=O)c2ccc(F)c(-c3c(F)cccc3F)n2)OC12CC2 [Example 287, N-(4-((5R,7S,8S)-7-amino-8-hydroxy-8-methyl-4-oxaspiro[2.5]octan-5-yl)pyridin-3-yl)-6-(2,6-difluorophenyl)-5-fluoropicolinamide] | 1500 | 388
18 | CC(C)[C@H]1C[C@@H](N)C[C@@H](c2ccncc2NC(=O)c2ccc(F)c(-c3c(F)cc(S(C)(=O)=O)cc3F)n2)O1 [Example 303, N-(4-((2S,4R,6R)-4-amino-6-isopropyltetrahydro-2H-pyran-2-yl)pyridin-3-yl)-6-(2,6-difluoro-4-(methylsulfonyl)phenyl)-5-fluoropicolinamide] | 10300 | 1250
19 | CC(=O)Nc1ccc(F)c(-c2nc(C(=O)Nc3cnccc3C3C[C@@H](N)[C@H](O)[C@@H](C(C)C)O3)ccc2F)c1F (stereo in doubt) [Example 307, 6-(3-acetamido-2,6-difluorophenyl)-N-(4-((2S,4R,5S,6R)-4-amino-5-hydroxy-6-isopropyltetrahydro-2H-pyran-2-yl)pyridin-3-yl)-5-fluoropicolinamide] | 3420 | 50.1
20 | CC(C)[C@H]1O[C@@H](c2ccncc2NC(=O)c2ccc(F)c(-c3ccc(S(C)(=O)=O)cc3)n2)C[C@@H](N)[C@@H]1O [Example 306, N-(4-((2R,4R,5S,6R)-4-amino-5-hydroxy-6-isopropyltetrahydro-2H-pyran-2-yl)pyridin-3-yl)-5-fluoro-6-(4-(methylsulfonyl)phenyl)picolinamide] | 2820 | 1660
